Measured values: patent US20220364065A1, “COMPOSITION FOR REMOVING PLURIPOTENT STEM CELLS AND METHOD OF REMOVING PLURIPOTENT STEM CELLS” (NATIONAL UNIVERSITY CORPORATION HOKKAIDO UNIVERSITY, priority 2018, published 2022)

What was measured:
[1] = tested on: C2C12: mouse myoblasts; assay: MTT assay, viability of C2C12 cells; format: cell-based; conditions: 10 μM BRQ, 3 days
Experimental: (§1) One thousand cells were seeded into each well of a 96-well plate and cultured for 3 days in medium (200 μL/well) supplemented with only DMSO at a final concentration of 0.1% or in medium (200 μL/well) supplemented with each dihydroorotate dehydrogenase (DHODH) inhibitor. The medium used was the appropriate culture solution for each cell as described above.
(§2) The concentration of each DHODH inhibitor added to the medium was a 2-fold dilution series starting from 200 μM.
(§3) As a background, a well containing medium only was prepared, and as a control, a well was also prepared in which medium containing Triton X-100 (final concentration 0.2%) was added to the cells.
(§4) Then, 5 μL of MTT (5 mg/ml, manufactured by Wako) was added to each well, and the cells were incubated at 37° C. for 2 to 3 hours. Then, the medium was replaced with 100 μL of DMSO to lyse the cells, and the absorbance of these cell lysates at a wavelength of 570 nm was measured with a microplate reader (manufactured by Bio-Rad, Benchmark model). In addition, based on the obtained absorbance, the cell viability was calculated by the following formula.
(§5) Cell viability (%)=(absorbance in wells with DHODH inhibitor-absorbance in background)/(absorbance in control-absorbance in background)×100. […]

[2] = tested on: mouse ES cells; assay: Quantitative RT-PCR of Sox2, Oct4, Nanog, ES cells; format: cell-based; conditions: 10 μM BRQ, 2 days
Experimental: First, total RNA was prepared from cells using the RNeasy kit (manufactured by Qiagen), and cDNA was synthesized using the Transcriptor First Strand cDNA Synthesis Kit (manufactured by Roche Applied Science).
Then, the cDNA was used as a template, and Thunderbird Cyber qPCR Mix (manufactured by TOYOBO) and Step One Plus (manufactured by Thermo Fisher Scientific) were used to perform real-time PCR. The reaction conditions were set at 95° C. for 15 seconds and 60° C. for 30 seconds for 40 cycles, and the oligonucleotide primers shown below were used to amplify each target gene.
Note that the expression level of each target gene detected in this way was normalized by the relative quantification method (delta delta Ct method) based on the expression level of 18S ribosomal RNA.

[3] = tested on: mouse neural stem cells and mouse iPS cells; assay: Mixed culture of neural stem cells and iPS cells, Nestin/Nanog immunostaining; format: cell-based; conditions: 10 μM BRQ, 3 days
Experimental: The cells were fixed and immunostained as described in Kondo et al., Genes Dev. 2004, Vol. 18, Issue 23, pp. 2963-72. […] For the culture of mNSCs, PDL+fibronectin-coated ones were used (see Johe KK et al., Genes Dev. 1996, Vol. 10, Issue 24, pp. 3129 to 3140). For the culture of ES cells and iPS cells, gelatin-coated ones were used.
For immunostaining, the cells were first washed once with PBS, then fixed by adding 4% paraformaldehyde and incubating for 10 minutes at room temperature. The cells were replaced with PBS containing 0.3% Triton X100 and incubated for 5 minutes at room temperature, then replaced with PBS containing 0.3% Triton X100 and 10% FCS (blocking solution) and incubated for 30 minutes at room temperature. The solution was replaced with primary antibody solution diluted in blocking solution and incubated for 2 hours at room temperature. After washing three times with PBS, secondary antibody and DAPI solution diluted with blocking solution were added and incubated at room temperature for 2 hours. After washing three times with PBS, the cells were sealed with anti-fading agent (manufactured by DAKO, code number: 53023) and observed under a microscope. […] In addition, fluorescence images were acquired with an Axiolmager M1 microscope (manufactured by Carl Zeiss).
The cells were then analyzed by immunostaining as described above.

[4] = tested on: NT2: human embryonal carcinoma (EC) cells; assay: MTT assay, viability of NT2 cells; format: cell-based; conditions: 10 μM BRQ, 3 days
Experimental: as §1, §2, §3, §4, §5

[5] = tested on: mouse iPS cells; assay: Teratoma formation from pretreated iPS cells in NOD/SCID mice; format: in vivo; conditions: iPS cells pretreated 2 days with 10 μM BRQ, subcutaneous in NOD/SCID mice, 4 weeks
Experimental: The viable cells (1×10^6) were suspended in 50 μl of Matrigel (manufactured by BD Biosciences) and injected subcutaneously into the buttocks of 5-8-week-old NOD/SCID mice anesthetized with 10% pentobarbital. Four weeks after the injection, the mice were sacrificed to death, and the tumors were removed and photographed for their size measurement according to the method described in Tsukamoto Y, et al., Stem Cells. 2016; 34(8): 2016-2025. Based on the measurement values obtained, the volume of the tumors was calculated by the following formula.
Volume of tumor (cm^3)=major diameterxminor diameterxminor diameter×½.
Then, 4 weeks after transplantation, the tumors were removed and observed.

Cc1c(-c2ccc(-c3ccccc3F)cc2)nc2ccc(F)cc2c1C(=O)O [BRQ, 6-fluoro-2-(2′-fluoro-1,1′-biphenyl-4-yl)-3-methyl-4-quinoline-sodium carboxylate]
cytotoxic activity (viability, MTT assay) [1]: no significant cytotoxic activity
expression levels of marker genes (Sox2, Oct4, Nanog) [2]: generally decreased
iPS cells (Nanog) in mixed culture ([3]; ES cell medium): lost
cytotoxicity to neural stem cells (Nestin) in mixed culture ([3]; mixed with iPS cells): no obvious cytotoxicity
cytotoxic activity (viability, MTT assay) [4]: significant cytotoxic activity
tumor formation from pretreated cells [5]: did not proliferate
